Earlier results as cited in patent publication US20100247512A1, “Pericellular Collagenase Directs the 3-Dimensional Development of White Adipose Tissue” (The Regents of the University of Michigan, priority 2006, published 2010).
The star is where a group is joined. Decanoyl = CCCCCCCCCC(=O)*; CH2Cl = ClC*

Tests used:
[1] = tested on: pro-MT1-MMP; conditions: Rosenthal, et al., 2005
[2] = target: MT1-MMP (Homo sapiens, UniProt P50281); conditions: Rosenthal, et al., 2005

inhibition of MT1-MMP, blocking collagenolysis [2] | Substance | inhibition of intracellular conversion of pro-MT1-MMP to its active form [1]
 | deconyl-Arg-Val-Lys-Arg-CMK (Decanoyl-RVKR-CH2Cl) | inhibits the intracellular conversion of pro-MT1-MMP to its active form
poor inhibitor of MT1-MMP | TIMP-1: member of the tissue inhibitors of metalloproteinases (TIMPs), a family of natural protein MMP inhibitors | 
